Patent US9090583B2, “Benzopyrone estrogen receptor regulator” (BEIJING SHENOGEN PHARMA GROUP LTD., priority 2010, dated 2015)
In brackets after ≈: the same amount, converted by molar mass. Where two headings read alike, the source gives them in different places.

What was measured:
[1] = test system: MDA-MB-231 cells; assay: CellTiter-Glo Luminescent Cell Viability Assay on ER-negative breast cancer MDA-MB-231 cells; format: cell-based; details: average ± standard deviation when tested more than 3 times, read-out: Inhibition of the viability of breast cancer cells, IC50
Procedure, shortened: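 Cells seeded at 6×10^3 per well in DMEM with 10% FCS and exposed 72 h to compound at 0 to 100 μM (twelve concentrations, DMSO vehicle). Viability measured by CellTiter-Glo luminescence.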

[2] = test system: Molt-4 cells; assay: CellTiter-Glo Luminescent Cell Viability Assay on leukemia Molt-4 cells; format: cell-based; details: 72 hours, read-out: Inhibition of the viability of leukemia cells, IC50
Protocol: C: In Vitro CellTiter-Glo® Luminescent Cell Viability Assay on Leukemia Molt-4 Cells
(§1) The leukemia Molt-4 cells were obtained from ATCC and maintained in RPMI-1640 and 10% fetal calf serum at 37° C., under 5% CO2 atmosphere. The cells were seeded on 96-well plate at a density of 6×10^3 cells per well. RPMI-1640 cells were treated with a test compound dissolved in DMSO at the concentrations of zero, 0.3 μM, 0.5 μM, 1 μM, 2 μM, 3 μM, 5 μM, 10 μM, 20 μM, 30 μM, 50 μM and 100 μM for 72 hours. Treated cells were examined by CellTiter-Glo® Luminescent Cell Viability Assay Kit (Promega), and luminescence values were recorded with Envision.

[3] = test system: CoC1 cells; assay: CellTiter-Glo Luminescent Cell Viability Assay on ovary cancer CoC1 cells; format: cell-based; details: 72 hours, read-out: Inhibition of the viability of ovary cancer cells, IC50
Protocol: B: In Vitro CellTiter-Glo® Luminescent Cell Viability Assay on Ovary Cancer CoC1 Cells
as §1, with “The ovary cancer CoC1” for “The leukemia Molt-4”, “from Cancer hospital, Chinese Academy of Medical Sciences” for “from ATCC”, “well. CoC1” for “well. RPMI-1640”, “10” for “10 μM, 20”

[4] = test system: MCF7 cells; assay: CellTiter-Glo Luminescent Cell Viability Assay on ER-positive breast cancer MCF-7 cells; format: cell-based, human; details: 72 hours, average ± standard deviation when tested more than 3 times, read-out: Inhibition of the viability of breast cancer cells, IC50
Procedure, shortened: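 MCF7 cells (DMEM, 10% FCS, 37 °C) treated 72 h with compound at 0–100 μM (0.3, 0.5, 1, 2, 3, 5, 10, 20, 30, 50, 100 μM). Viability measured by CellTiter-Glo luminescence.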

[5] = test system: HL-60 cells; assay: CellTiter-Glo Luminescent Cell Viability Assay on leukemia HL-60 cells; format: cell-based, human; details: 72 hours, read-out: Inhibition of the viability of leukemia cells, IC50
Protocol: B: In Vitro CellTiter-Glo® Luminescent Cell Viability Assay on Leukemia HL-60 Cells
as §1, with “leukemia HL-60” for “leukemia Molt-4”, “in IMDM” for “in RPMI-1640”, “well. HL-60” for “well. RPMI-1640”

[6] = test system: K562 cells; assay: CellTiter-Glo Luminescent Cell Viability Assay on leukemia K562 cells; format: cell-based, human; details: 72 hours, read-out: Inhibition of the viability of leukemia cells, IC50
Protocol: A: In Vitro CellTiter-Glo® Luminescent Cell Viability Assay on Leukemia K562 Cells
as §1, with “leukemia K562” for “leukemia Molt-4”, “in IMDM” for “in RPMI-1640”, “well. K562” for “well. RPMI-1640”

[7] = test system: HEC-1A cells; assay: CellTiter-Glo Luminescent assay on endometrial cancer HEC-1A cells; format: cell-based, human; details: 72 hours, read-out: Inhibition of the viability of endometrial cancer cells, IC50
Protocol: CellTiter-Glo® Luminescent Assay to Measure the Inhibitory Activity of the Compounds on In Vitro Growth of Endometrial Cancer HEC-1A Cells
as §1, with “HEC-1A cells are endometrial cancer cell lines only expressing ER-36. Human endometrial cancer HEC-1A cells” for “The leukemia Molt-4 cells”, “in DMEM” for “in RPMI-1640”, “well. HEC-1A” for “well. RPMI-1640”, “5” for “5 μM, 10”

[8] = test system: Hep3B2.1-7 cells; assay: MTT assay, in vitro growth of liver cancer Hep3B2.1-7 cells; format: cell-based; details: 72 hours
Protocol: The liver cancer Hep3B2.1-7 cells were obtained from ATCC. Cells were incubated in 1640 culture medium with 5% fetal calf serum and 100 U/ml double-antibody in a cell incubator at 37° C., 5% CO2 atmosphere and passaged via conventional methods. The sample was dissolved in DMSO, formulated into 50 mg/ml stocking solution, and stored at 4° C. The test solutions at 50, 25, 12.5 and 6.25 μg/ml were formulated with culture medium immediately before use.
The adherent cells were digested with cell digestive solution, and then the exfoliated cells were collected and counted. The cell suspension was formulated with 1640 culture medium containing 5% fetal calf serum (5.0×10^4/ml). The cell suspension was seeded on 96-well plate with 100 μl/well, and maintained in a cell incubator at 37° C., 5% CO2 atmosphere for 24 hours. After that, the compounds at various concentrations were added, where solvent was taken as negative control and Taxol as positive control. 10 μl MTT (5 mg/ml) was added after 72 hours. The supernatant was removed after cultivation for 3 hours more, 150 μl DMSO was added and the formazan was dissolved on shaking. OD values were measured at 570 nm after homogeneous mixing, and inhibition rate and IC50 values were calculated based on the mean of OD values from 3 wells.

[9] = target: T1, ER-α36 (Homo sapiens, UniProt P03372); assay: Regulation of ER-α36 protein expression in HEC-1A cells (Western blot); format: cell-based; details: serum-depleted HEC-1A cells; 1, 10, 50 and 100 nM; 24 and 48 hours; effect above the concentration of 50 nM
T1 construct: endogenous in cells; host or cells: HEC-1A human endometrial cancer cells
T1 sequence (P03372 1-310 isoform P03372-4): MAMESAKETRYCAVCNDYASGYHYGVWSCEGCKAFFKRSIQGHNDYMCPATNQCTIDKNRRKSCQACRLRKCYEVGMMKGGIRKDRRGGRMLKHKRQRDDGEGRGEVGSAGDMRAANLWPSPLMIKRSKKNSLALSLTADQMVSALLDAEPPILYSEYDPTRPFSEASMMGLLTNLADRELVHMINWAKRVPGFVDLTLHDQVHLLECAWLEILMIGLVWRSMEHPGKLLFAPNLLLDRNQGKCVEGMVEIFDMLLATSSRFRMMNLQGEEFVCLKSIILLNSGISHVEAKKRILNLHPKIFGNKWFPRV
Protocol: Taking endometrial cancer HEC-1A cells as an example, serum-depleted HEC-1A cells were treated with compounds at concentrations of 1, 10, 50 and 100 nM for 24 hours and 48 hours. The treated cells were washed with PBS and lysed with lysis buffer (a mixture of 1*PBS (pH7.4), 1% NP-40, 0.7 mMEDTA, and protease inhibitor from Roche). The lysates were boiled for 5 minutes in a SDS gel loading buffer (25 mM Tris-Cl pH 6.8; 10% SDS; 2% glycerol; 20% β-mercaptoethanol; 0.01% bromophenol blue) and separated on a 10% SDS-PAGE gel. After electrophoresis, the proteins were transferred onto PVDF membrane (Millipore Transfer Membrane). The membrane was probed with Rabbit anti-ER36 antibody which is specific to 20 amino acid polypeptides at C-terminus of ER-α36. Then the membrane was incubated with an HRP-conjugated secondary antibody and visualized with ECL detection reagents.

IC50 ([1]; 72 hours) | IC50 [2] | IC50 [3] | IC50 [4] | IC50 [5] | IC50 [6] | IC50 [7] | Inhibition on liver cancer cells, IC50 [8] | IC50 ([1]; Homo sapiens, MDA-MB-231, 72 h) | expression of ER-36 in cells [9] | IC50 ([8]; read-out: Inhibition on liver cancer cells, IC50) | Compound
7.03 ± 1.06 µM | 9.13 µM | 6.91 µM | 6.73 ± 1.58 µM | 8.96 µM | 12 µM | 7.14 µM | 1.45 µg/mL | – | – | – | 2-(-fluoro-4-chlorophenyl)-5,7-dihydroxy-3-methoxy-6,8-di(3-methyl-2-buten-1-yl)-4H-benzopyran-4-one [Compound 5]
7.06 ± 2.13 µM | > 100 µM | – | 5.14 ± 0.47 µM | > 100 µM | > 100 µM | 4.02 µM | – | – | – | – | COc1c(-c2ccc(C(F)(F)F)c(F)c2)oc2c(CC=C(C)C)c(O)c(CC=C(C)C)c(O)c2c1=O [Compound 6, 2-(3-fluoro-4-trifluoromethylphenyl)-5,7-dihydroxy-3-methoxy-6,8-di(3-methyl-2-butylene-1-yl)-4H-benzopyran-4-one]
9.91 ± 0.11 µM | 13.2 µM | – | 8.28 ± 2.2 µM | 15.7 µM | 12.4 µM | 8.35 µM | 0.00138 µg/mL | – | – | – | COc1c(-c2ccc(C(F)(F)F)cc2)oc2c(CC=C(C)C)c(O)c(CC=C(C)C)c(O)c2c1=O [Compound 15, 2-(4-trifluoromethylphenyl)-5,7-dihydroxy-3-methoxy-6,8-di(3-methyl-2-butylene-1-yl)-4H-benzopyran-4-one]
11.9 ± 0.4 µM | 14.2 µM | – | 12.03 ± 0.09 µM | > 100 µM | > 100 µM | 13.8 µM | – | – | – | – | COc1c(-c2ccc3nccnc3c2)oc2c(CC=C(C)C)c(O)c(CC=C(C)C)c(O)c2c1=O [Compound 18, 2-(quinoxalin-6-yl)-5,7-dihydroxy-3-methoxy-6,8-di(3-methyl-2-butylene-1-yl)-4H-benzopyran-4-one]
– | – | – | – | – | – | – | – | 1.62 µM | dramatically reduced | 0.0144 µg/mL (≈ 0.0303 µM) | CC(C)=CCc1c(O)c(CC=C(C)C)c2oc(-c3ccc(C(F)(F)F)cc3)c(O)c(=O)c2c1O [Compound 98, 2-(4-trifluoromethylphenyl)-3,5,7-trihydroxy-6,8-di(3-methyl-2-buten-1-yl)-4H-benzopyran-4-one]
